Assays:
Water solubility = type: physicochemical; settings: for water solubility (product containing bound NH4+ and ammonium hydrocarbonate contaminations): before repeated ion exchange chromatography, m.p. 159-161 °C
[1] = Gelling of aqueous solutions (concentration-, time- and temperature-dependent); type: physicochemical; settings: 5-10 mg/ml aqueous solution of the single component
Protocol: Water soluble primycin has a further very interesting characteristic. It has been observed that its aqueous solution spontaneously gellifies, the gelling time being dependent on the primycin content of the solution. As it appears from the curves of FIG. 1, the complete gelling of a 5-10 mg/ml aqueous primycin solution requires about 1-2 days, that of a 20-40 mg/ml primycin solution requires about 6-12 hours, whereas an aqueous primycin solution comprising more than 50 mg/ml of primycin completely gellifies even within 1-2 hours. The concentration-, time- and temperature-dependent gelling (polymerization) can be attributed presumably to the changes in orientation of the --OH groups in the molecule.
The gelling properties of the individual components of formulae (A1) and (A3) and those of the two-component mixture have also been examined. […] It can be assumed that this delay in gelling is connected with a change in conformation or with the orientation of the hydroxy groups.

Bacillus subtilis = assay: Agar diffusion test, minimum inhibitory concentration (MIC) on Bacillus subtilis; type: cell-based, Bacillus subtilis ATCC 6633; settings: for MIC: Table II, agar diffusion test on Bacillus subtilis; for biological activity (on Bacillus subtilis): preparation examples
Protocol: Thin layer chromatography was performed on a Kieselgel 60 DC Alufolien F254 plate utilizing the upper phase of a 38:2:10:50 v/v mixture of butanol, ethanol, acetic acid and water as solvent and a mixture of vanillin and sulfuric acid at 105° C. as detecting agent. Biological evaluation was performed by agar diffusion test on Bacillus subtilis.
Agar diffusion technique was applied for the biological evaluation of primycin. As test organism Bacillus subtilis ATCC 6633 was applied.
Bacillus subtilis ATCC 6633 was cultivated on a Schaeffer medium (Nutrient Broth No. 2/oxoid) with the following composition:
The solution was heated in a pressurized vessel for 30 minutes at a pressure of 1.5 atmospheres, thereafter the pE was adjusted to 7.0-7.2 with 5-6 drops of 10N sodium hydroxide solution, 90 ml portions of the solution were poured into cultivating dishes, and the portions were supplemented with 10 ml, each, of the following solutions:
a) 236 mg (10^-3 mole) of Ca(NO3)2. 4H2 O dissolved in 100 ml of distilled water, and
b) […] (10^-5 mole) of MnCl2.4H2 O dissolved in 100 ml of distilled water.
The titrating nutrient medium was prepared as follows:
5 g of meat extract (Beef Extract Difco), 0.5 g of peptone (Bacto Peptone Difco), 1 g of Na2 HPO4 and 0.1 g of KH2 PO4 were dissolved in 100 ml of distilled water, the solution was boiled for 2 hours, and then the pH was adjusted to 8. The warm solution was filtered, allowed to cool, the filtrate was diluted with 900 ml of distilled water, and 20 g of agar (Bacto Agar Difco), dissolved in a Koch pot, were added to 1 liter of the solution. The pH of the warm solution was checked. 100 ml portions of the resulting solution were filled into storage flasks and then heat treated for 20 minutes in a pressurized vessel under a pressure of 1.5 atmospheres. […]
Solutions containing 20-50 /ug/ml of active agent were prepared from the substances to be examined [starting water insoluble primycin; water soluble primycin; a mixture of the compounds of formulae (A1) and (A3); a compound of formula (A1); a compound of formula (A3)] in water or in a 1:1:2 v/v mixture of butanol, ethanol and water, and the resulting solutions were diluted with buffered distilled water (0.15 molar phosphate buffer, pH=7.6) to concentrations of 0.05-0.1, 0.5-1.0 and 2.0 /ug/ml. […] Thereafter the diameters of the diffusive extinction zones were measured in mm, the obtained values were plotted on a semi-logarithmic scale against the concentrations of the standard serial dilutions, and the activity values were determined by extrapolation.

| Compound | water solubility (in words) (Water solubility) | storage of aqueous solution without any observable change [1] | MIC (Bacillus subtilis) [µg/mL] | biological activity (on Bacillus subtilis) (Bacillus subtilis; listed as component of formula (A1)) | water solubility (product containing bound NH4+ and ammonium hydrocarbonate contaminations) (Water solubility) | water solubility (product containing bound NH4+ and ammonium hydrocarbonate contaminations) (Water solubility; listed as component of formula (A3)) [µg/mL] | Water solubility (Water solubility; water, listed as component of formula (A3)) | biological activity (on Bacillus subtilis) (Bacillus subtilis) |
| --- | --- | --- | --- | --- | --- | --- | --- | --- |
| CCCCC1C(=O)OC(C(C)C(O)CCCNC(=N)N)C(C)C=C(C)CCCCC(O)CC(O)CC(O)CC(O)CC(O)C(OC2OC(CO)C(O)C2O)C=C(C)C(O)CCCC(O)CCCC(O)CCC(C)C1O (stereo not shown) [Compound of formula (A1)] | well soluble in water | can be stored for days (maximum for one week) without any observable change | 0.03 to 0.06 | 0.03-0.06 /ug/ml | – | – | – | – |
| CCCCC1C(=O)OC(C(C)C(O)CCCNC(=N)N)C(C)C=C(C)CCCCC(O)CC(O)CC(O)CC(O)CC(O)C(OC2OC(CO)C(O)C2O)C=C(C)C(O)CCCC(O)CCCC(O)CCC(C)C1O (stereo not shown) [Compound of formula (A3)] | – | can be stored for days (maximum for one week) without any observable change | 0.5 to 1.0 | – | about 5 mg/ml | 2000 to 6000 | about 50 mg/ml | 0.5-1 /ug/ml |

From patent US5441940A, “Process for the preparation of water soluble primycin and its components and pharmaceutical compositions containing them” (Chinoin Gyogyszer es Vegyeszeti Termekek Gyara Rt., priority 1988, dated 1995)
